Assay results as given in patent US8680111B2 (Pfizer Inc., priority 2012, dated 2014).
Read-outs that look alike come from different tables or passages of the source.

Experiments:
[1] = cc_pd bond
[2] = molecular target: T1, human recombinant wild-type ALK kinase domain (amino acids 1093-1411) (Homo sapiens, UniProt Q9UM73); assay: Wild-type ALK enzyme assay (microfluidic mobility shift); type: biochemical; conditions: ATP 60 μM, competitive inhibition fit, read-out: WT ALK enzyme assay (Ki)
T1 construct: ALK kinase domain (amino acids 1093-1411); made in house
Method: The reactions were incubated for 1 h at room temperature, stopped by the addition of 0.1 M EDTA, pH 8, and the extent of reactions (˜15-20% conversion with no inhibitor) was determined after electrophoretic separation of the fluorescently labeled peptide substrate and phosphorylated product on an LabChip EZ Reader II (Caliper Life Sciences, Hopkinton, Mass.).

[3] = molecular target: T2, human recombinant L1196M ALK kinase domain (amino acids 1093-1411) (Homo sapiens, UniProt Q9UM73, L1196M); assay: L1196M mutant ALK enzyme assay (microfluidic mobility shift); type: biochemical; conditions: ATP 60 μM, 0.5 nM enzyme, competitive inhibition fit; read-out: L1196M ALK enzyme assay (Ki)
T2 construct: ALK kinase domain (amino acids 1093-1411); made in house

[4] = molecular target: T3, WT EML4-ALK (NIH-3T3 EML4-ALK wt v1 cells) (Homo sapiens, UniProt Q9UM73); assay: Cellular phospho-ALK (Tyr1604) ELISA assay for WT EML4-ALK; type: cell-based; conditions: 1 hour, read-out: ELISA assay for WT EML4-ALK (IC50)
T3 construct: expressed in transfected cells; the other entry of the earlier key: EML4 (Q9HC35, Echinoderm microtubule-associated protein-like 4)

[5] = molecular target: T4, L1196M EML4-ALK (NIH-3T3 EML4-ALK v1 L1196M cells) (Homo sapiens, UniProt Q9UM73, L1196M); assay: Cellular phospho-ALK (Tyr1604) ELISA assay for L1196M EML4-ALK; type: cell-based; conditions: NIH-3T3 EML4-ALK v1 L1196M cells, 1 hour, phospho-ALK (Tyr1604); read-out: ELISA assay for L1196M EML4-ALK (IC50)
T4 construct: expressed in transfected cells; the other entry of the earlier key: EML4 (Q9HC35, Echinoderm microtubule-associated protein-like 4)
Method: Cellular Phospho-ALK (Tyr1604) ELISA Assay for EML4-ALK:
The cells were maintained at 37° C. in a 5% CO2 incubator in DMEM (Invitrogen, Carlsbad, Calif.) medium supplemented with 1% L-glutamine, 1% penicillin and streptomycin, 1 ug/ml puromycin and 10% new born calf serum (NCS) in T-75 flasks.
Cells were washed with PBS and re-suspended in DMEM medium supplemented with 0.5% NCS and 1% pen/strep and seeded into 96-well plates at density of 20,000 cells/well/100 μl and incubated in the incubator at 37° C. and 5% CO2. After 20 hours of incubation, 100 μl of assay media (DMEM) in presence of designated PF-compounds concentrations or controls (DMSO) were added into plates and incubated for 1 hour in the incubator. Media was then removed and lysis buffer, containing phosphatase inhibitors and phenylmethanesulfonyl fluoride (PMSF), was added to wells and shaken at 4° C. for 30 minutes to generate protein lysates.
A phospho-ALK (Tyr1604) rabbit antibody was coated onto the 96-well microplates. 50 μl of cell lysates were added to the antibody coated plate and incubated at room temperature for 2 hours. Following extensive washing with 0.1% Tween 20 in PBS to remove unbound materials, ALK mouse mAb was added to detect captured phospho-ALK (Tyr1604) and phospho-ALK fusion proteins. Anti-mouse IgG, HRP-linked antibody was then used to recognize the bound detection antibody. Finally, the chemiluminescent reagent was added and incubated for 10 minutes for signal development. The assay plates were read in the Envision plate reader in the luminescent mode. IC50 values were calculated by a concentration-response curve fitting using a four-parameter analytic method.

[6] = cc_pd bond, 12-membered ring, Pd(OAc)2/cataCXium A/KOAc, t-AmOH, 120.0 °C
[7] = 12-membered ring

Row | SMILES | Ki [2] | Ki [3] | IC50 [4] | IC50 [5] | other results
1 | C[C@H]1Oc2nc(cnc2N)-c2c(nc3ccc(C#N)cn23)CN(C)C(=O)c2ccc(F)cc21 |  |  |  |  | ring closure, yield after HPLC (cc_pd bond, 12-membered ring, cataCXium/t-AmOH/KOAc, DMAc, 11.9 mM, 110.0 °C): 12%
2 | Cc1cnc2nc3c(n2c1)-c1cnc(N)c(n1)O[C@H](C)c1cc(F)ccc1C(=O)N(C)C3 |  |  |  |  | ring closure, yield of all isomers ([1]; from Cc1cnc2nc(CN(C)C(=O)c3ccc(F)cc3[C@@H](C)Oc3nc(Br)cnc3N)cn2c1, Pd(OAc)2/cataCXium A, KOAc, tert-amyl alcohol, 30.0 mM, 120.0 °C, 2.0 h): 50%
3 | Cc1cnc2nc3cn2c1-c1cnc(N)c(n1)O[C@H](C)c1cc(F)ccc1C(=O)N(C)C3 |  |  |  |  | ring closure, yield after HPLC (cc_pd bond, Pd(OAc)2/cataCXium A/KOAc, t-amyl alcohol, 30.0 mM, 120.0 °C): 7%
4 | Cc1nn(C)c2c1-c1cnc(N)c(n1)OC(C)c1cc(F)ccc1C(=O)N(C)C2 (stereo not shown) |  |  |  |  | ring closure, yield of all isomers ([1]; from Cc1nn(C)c(CN(C)C(=O)c2ccc(F)cc2C(C)Oc2nc(Br)cnc2N)c1Br, Pd(OAc)2 / di(1-adamantyl)-n-butylphosphine, bis(pinacolato)diboron, CsF, MeOH, 42.4 mM, 100.0 °C, 8.5 h, 2 steps): 6%
5 | COc1nccc2c1-c1cnc(N)c(c1)OC(C)c1cc(F)ccc1C(=O)N(C)C2 (stereo not shown) [Example 45, 8-amino-13-fluoro-4-methoxy-11,17-dimethyl-17,18-dihydro-9,5-(metheno)pyrido[3,4-h][2,5,11]benzoxadiazacyclotetradecin-16(11H)-one] | > 3000 nM | 500 nM |  |  | ring closure, yield after HPLC (amide bond, 12-membered ring, CMPI/DIEA, DMA, 10.0 mM, 0.0 °C): 4%
6 | C[C@H]1Oc2nc(cnc2N)-c2c(nn(C)c2C#N)CN(C)C(=O)c2ccccc21 [Example 70, (10R)-7-amino-2,10,16-trimethyl-15-oxo-10,15,16,17-tetrahydro-2H-8,4-(azeno)pyrazolo[4,3-h][2,5,11]benzoxadiazacyclotetradecine-3-carbonitrile] | < 0.16 nM | 0.96 nM | 6.52 nM | 78.5 nM | ring closure, yield after HPLC (from C[C@@H](Oc1nc(Br)cnc1N)c1ccccc1C(=O)N(C)Cc1cc(C#N)n(C)n1, cc_pd bond, 12-membered ring, Pd(OAc)2/cataCXium A/KOAc, t-amyl alcohol, 48.7 mM, 120.0 °C): 32%; ring closure, yield of all isomers ([1]; from C[C@@H](Oc1nc(Br)cnc1N)c1ccccc1C(=O)N(C)Cc1cc(C#N)n(C)n1, Pd(OAc)2/cataCXium A, KOAc, tert-amyl alcohol, 48.7 mM, 120.0 °C, 3.0 h): 32%
7 | C[C@H]1Oc2cc(cnc2N)-c2c(nn(C)c2C#N)CN(C)C(=O)c2ccccc21 [Example 71, (10R)-7-amino-2,10,16-trimethyl-15-oxo-10,15,16,17-tetrahydro-2H-8,4-(metheno)pyrazolo[4,3-h][2,5,11]benzoxadiazacyclotetradecine-3-carbonitrile] | < 0.249 nM | 3.73 nM | 10.2 nM | 169 nM | ring closure, yield after HPLC (cc_pd bond, 12-membered ring, B2pin2/Pd(OAc)2/cataCXium A/CsF, MeOH/H2O, 12.7 mM, 100.0 °C): 13%
8 | C[C@H]1Oc2nc(cnc2N)-c2c(C(N)=O)noc2CN(C)C(=O)c2ccc(F)cc21 [Example 72, (10R)-7-amino-12-fluoro-10,16-dimethyl-15-oxo-10,15,16,17-tetrahydro-8,4-(azeno)[1,2]oxazolo[4,5-h][2,5,11]benzoxadiazacyclotetradecine-3-carboxamide] | 5.1 nM | 28 nM | 347 nM | 4270 nM | ring closure, yield after HPLC (cc_pd bond, 12-membered ring, Pd(OAc)2/cataCXium A/KOAc/PivOH, DMA, […], 120.0 °C): 12%
9 | C[C@H]1Oc2nc(cnc2N)-c2c(C#N)noc2CN(C)C(=O)c2ccc(F)cc21 [Example 73, (10R)-7-amino-12-fluoro-10,16-dimethyl-15-oxo-10,15,16,17-tetrahydro-8,4-(azeno)[1,2]oxazolo[4,5-h][2,5,11]benzoxadiazacyclotetradecine-3-carbonitrile] | 0.33 nM | 2.4 nM | 12.8 nM | 169 nM | ring closure, yield after HPLC (cc_pd bond, 12-membered ring, Pd(OAc)2/cataCXium A/KOAc/PivOH, DMA, 49.9 mM, 120.0 °C): 21%
10 | CCc1noc2c1-c1cnc(N)c(c1)O[C@H](C)c1cc(F)ccc1C(=O)N(C)C2 [Example 81, (10R)-7-amino-3-ethyl-12-fluoro-10,16-dimethyl-16,17-dihydro-8,4-(metheno)[1,2]oxazolo[4,5-h][2,5,11]benzoxadiazacyclotetradecin-15(10H)-one] | < 1.88 nM | 3.9 nM | 2.25 nM | 52 nM | ring closure, yield after HPLC (cc_pd bond, 12-membered ring, Pd(OAc)2/cataCXium A/KOAc/PivOH, DMA, 50.0 mM, […]): 6%

The next lines start with results.

Row | Ki [2] | Ki [3] | IC50 [4] | IC50 [5] | SMILES | other results
11 | 0.2 nM | 0.39 nM | 15.5 nM | 191 nM | C[C@H]1Oc2cc(cnc2N)-c2c(n[nH]c2C#N)CN(C)C(=O)c2ccc(F)cc21 [Example 88, (10R)-7-amino-12-fluoro-10,16-dimethyl-15-oxo-10,15,16,17-tetrahydro-2H-8,4-(metheno)pyrazolo[4,3-h][2,5,11]benzoxadiazacyclotetradecine-3-carbonitrile] | ring closure, yield after HPLC (amide bond, 12-membered ring, HATU/DIEA, DMF, 8.3 mM, 0.0 °C): 12%
12 | 3.2 nM | 11.7 nM | 52.4 nM | 531 nM | C[C@H]1Oc2nc(cnc2N)-c2c(noc2C#N)CN(C)C(=O)c2ccc(F)cc21 [Example 99, (10R)-7-amino-12-fluoro-10,16-dimethyl-15-oxo-10,15,16,17-tetrahydro-8,4-(azeno)[1,2]oxazolo[4,3-h][2,5,11]benzoxadiazacyclotetradecine-3-carbonitrile] | ring closure, conversion ([6]; 21.0 mM): 30%; ring closure, yield after HPLC (cc_pd bond, 12-membered ring, Pd(OAc)2/cataCXium A/KOAc, t-AmOH, 21.0 mM, 120.0 °C): 9%
13 | 3.1 nM | 24.2 nM | 146 nM | 1480 nM | C[C@H]1Oc2cc(cnc2N)-c2c(noc2C#N)CN(C)C(=O)c2ccc(F)cc21 [Example 100, (10R)-7-amino-12-fluoro-10,16-dimethyl-15-oxo-10,15,16,17-tetrahydro-8,4-(metheno)[1,2]oxazolo[4,3-h][2,5,11]benzoxadiazacyclotetradecine-3-carbonitrile] | ring closure, isolated yield ([7]; cc_pd bond, Pd(OAc)2/cataCXium A/KOAc, t-AmOH, 17.9 mM, 120.0 °C): 15%; ring closure, conversion ([6]; 17.9 mM): 30%
14 | 0.12 nM | 0.41 nM | 0.92 nM | 8.77 nM | C[C@H]1Oc2nc(cnc2N)-c2c(nn(C)c2C#N)CN(C)C(=O)c2c(F)cc(F)cc21 [Example 101, (10R)-7-amino-12,14-difluoro-2,10,16-trimethyl-15-oxo-10,15,16,17-tetrahydro-2H-8,4-(azeno)pyrazolo[4,3-h][2,5,11]benzoxadiazacyclotetradecine-3-carbonitrile] | ring closure, isolated yield ([7]; cc_pd bond, Pd(OAc)2/cataCXium A/KOAc, t-amyl alcohol, 50.0 mM, 120.0 °C): 53%; ring closure, yield of all isomers ([1]; from C[C@@H](Oc1nc(Br)cnc1N)c1cc(F)cc(F)c1C(=O)N(C)Cc1cc(C#N)n(C)n1, Pd(OAc)2/cataCXium A/KOAc, tert-amyl alcohol, 50.0 mM, 120.0 °C, 2.0 h): 53%
15 | 0.33 nM | 1.41 nM | 11.6 nM | 83.8 nM | C[C@H]1Oc2nc(cnc2N)-c2c(nn(C)c2C#N)CNC(=O)c2ccc(F)cc21 [Example 102, (10R)-7-amino-12-fluoro-2,10-dimethyl-15-oxo-10,15,16,17-tetrahydro-2H-8,4-(azeno)pyrazolo[4,3-h][2,5,11]benzoxadiazacyclotetradecine-3-carbonitrile] | ring closure, isolated yield ([7]; amide bond, KOH, MeOH, […], 2 steps): 28%
